IC50 data for 56 molecules are collected here from patent publication US20260184715A1, “NOVEL PYRROLO[1,2-d][1,2,4] TRIAZINONE DERIVATIVES AS NEGATIVE ALLOSTERIC MODULATORS OF MGLU7 RECEPTORS” (Neurosterix Pharma Sarl., priority 2022, published 2026).

The term pIC50 denotes the IC50 on a negative log10 scale, so that one unit is a factor of ten.

Molecules are shown by their SMILES. pIC50: −log10 of the molar value. A value given as a limit tells only on which side of the number the result lay.

T1 sequence (Q14831 35-922 isoform Q14831-2 limits assumed): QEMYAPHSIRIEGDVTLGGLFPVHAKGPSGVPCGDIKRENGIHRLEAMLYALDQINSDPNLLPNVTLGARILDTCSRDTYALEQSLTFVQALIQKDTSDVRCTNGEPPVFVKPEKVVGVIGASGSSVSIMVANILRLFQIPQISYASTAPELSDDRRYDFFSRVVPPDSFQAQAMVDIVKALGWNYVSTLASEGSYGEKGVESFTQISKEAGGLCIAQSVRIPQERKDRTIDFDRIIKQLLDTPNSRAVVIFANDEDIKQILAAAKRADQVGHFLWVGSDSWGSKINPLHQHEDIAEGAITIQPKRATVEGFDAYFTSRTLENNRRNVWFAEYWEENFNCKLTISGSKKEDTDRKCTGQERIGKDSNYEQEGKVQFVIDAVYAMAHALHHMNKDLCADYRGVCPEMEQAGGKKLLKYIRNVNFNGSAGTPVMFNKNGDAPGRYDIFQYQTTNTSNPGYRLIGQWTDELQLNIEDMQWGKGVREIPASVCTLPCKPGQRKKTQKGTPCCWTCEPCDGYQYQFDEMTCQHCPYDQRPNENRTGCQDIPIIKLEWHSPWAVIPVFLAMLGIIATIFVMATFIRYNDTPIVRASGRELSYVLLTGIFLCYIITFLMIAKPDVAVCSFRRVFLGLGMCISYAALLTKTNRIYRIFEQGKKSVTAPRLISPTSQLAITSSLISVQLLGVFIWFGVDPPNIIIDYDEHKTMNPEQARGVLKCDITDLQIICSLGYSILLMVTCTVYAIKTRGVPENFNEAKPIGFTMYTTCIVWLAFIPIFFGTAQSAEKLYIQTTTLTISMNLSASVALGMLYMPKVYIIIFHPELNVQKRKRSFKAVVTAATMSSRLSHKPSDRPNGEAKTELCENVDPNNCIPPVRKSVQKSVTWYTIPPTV

The assay has as its target T1, human metabotropic glutamate 7 receptor (hmGlu7) (Homo sapiens, UniProt Q14831).
T1 construct: expressed in transfected cells
Nature of the assay: mGlu7 assay on HEK-expressing human mGlu7: fluorescent cell based-Ca2+ mobilization assay (FLIPR), inhibition of EC80 L-AP4 response. As to conditions: HEK-293 cells expressing hmGlu7, EC80 L-AP4; mean of at least three independent experiments in duplicate; read-out: Ca^2+ Flux (mean IC50). The source says:
mGlu7 Assay on HEK-Expressing Human mGLU7
The cDNA encoding the human metabotropic glutamate 7 receptor (hmGlu7), (accession number NM_181874.2, NCBI Nucleotide database browser), was subcloned into an expression vector containing also the hygromycin resistance gene. In parallel, the cDNA encoding a G protein allowing redirection of the activation signal to intracellular calcium flux was subcloned into a different expression vector containing also the Puromycin resistance gene. Transfection of both these vectors into HEK293 cells with PolyFect reagent (Qiagen) according to supplier's protocol, and hygromycin and puromycin treatment allowed selection of antibiotic resistant cells which had integrated stably one or more copies of the plasmids. Positive cellular clones expressing hmGlu7 were identified in a functional assay measuring changes in calcium fluxes in response to glutamate and L-AP4 or known mGlu7 orthosteric antagonists.
HEK-293 cells expressing hmGlu7 were maintained in media containing DMEM, Fetal Bovine Serum (10%), GlutaMAX™ (2 mM), penicillin (100 units/mL), streptomycin (100 μg/mL), geneticin (100 μg/mL) and hygromycin-B (40 μg/mL) and puromycin (1 μg/mL) at 37° C. with 5% CO2 in a humidified atmosphere.
Human mGlu7 HEK-293 cells were plated out 24 hours prior to a fluorescent cell-based calcium mobilization assay using FLIPR^384 assay (Molecular Device, Sunnyvale, CA, USA) in black-walled, clear-bottomed, poly-L-ornithine-coated 384-well plates at a density of 25,000 cells/well in a glutamine/glutamate free DMEM medium containing fetal bovine serum (10%), penicillin (100 units/mL), streptomycin (100 μg/mL) and doxycyline (1 μg/ml) at 37° C. with 5% CO2 in a humidified atmosphere.
On the day of the assay, the medium was aspirated and the cells were loaded with a 3 μM solution of Fluo4-AM (LuBioScience, Lucerne, Switzerland) in 0.03% pluronic acid. After 1 hour at 37° C./5% CO2, the non incorporated dye was removed by washing cell plate with the assay buffer. All assays were performed in a pH 7.4 buffered-Solution containing 20 mM HEPES, 143 mM NaCl, 6 mM KCl, 1 mM MgSO4, 1 mM CaCl2, 0.125 mM sulfinpyrazone and 0.1% glucose.
After 10 s of basal fluorescence recording, various concentrations of the compounds of the invention were added to the cells. Changes in fluorescence levels were first monitored for 180 s in order to detect any agonist activity of the compounds. Then the cells were stimulated by an EC80 L-AP4 concentration for an additional 110 s in order to measure inhibiting activities of the compounds of the invention. EC80 L-AP4 concentration is the concentration giving 80% of the maximal glutamate response.
The concentration-response curves of L-AP4 or representative compounds of the present invention were generated using the Prism GraphPad software (Graph Pad Inc, San Diego, USA). The curves were fitted to a four-parameter logistic equation:
(Y=Bottom+(Top−Bottom)/(1+10^((Log IC50−X)*Hill Slope)
allowing determination of IC50 values.
The Table 3 below represents the mean IC50 obtained from at least three independent experiments of selected molecules performed in duplicate.
For the molecule `Cc1ccc(-c2c(C)c3cnn(-c4ccccn4)c(=O)n3c2C)c(C)c1` [1-1], the pIC50 was above 7.00.

On to `COc1cccc(-c2c(C)c3cnn(-c4ccccn4)c(=O)n3c2C)c1` [1-2], for which the pIC50 is above 7.00. Regarding `Cc1c(-c2cccc(N3CCC3)c2)c(C)n2c(=O)n(-c3ccccn3)ncc12` [1-3, 7-[3-(azetidin-1-yl)phenyl]-6,8-dimethyl-3-(2-pyridyl)pyrrolo[1,2-d][1,2,4]triazin-4-one], the pIC50 is above 7.00. The value for `COc1cccc(-c2c(C)c3cnn(-c4ccccn4)c(=O)n3c2C)c1C` [1-4] was 6.00 to 7.00; that for `Cc1c(-c2cccc(N3CCC3)c2)c(C)n2c(=O)n(C3CCOCC3)ncc12` [1-5] was 6.00 to 7.00; that for `Cc1c(-c2cccc(N3CCC3)c2)c(C)n2c(=O)n(-c3ccncc3)ncc12` [1-6] was 6.00 to 7.00.

Regarding `Cc1c(-c2cccc(N3CCC3)c2)c(C)n2c(=O)n(-c3ncccc3F)ncc12` [1-7], the pIC50 was above 7.00. The value for `Cc1c(OC2CC2)cccc1-c1c(C)c2cnn(-c3ccccn3)c(=O)n2c1C` [1-8] was 6.00 to 7.00; that for `Cc1c(-c2cccc(N3CCC3)c2)c(C)n2c(=O)n(Cc3ccccn3)ncc12` [1-9] was 6.00 to 7.00.

In the case of `CCn1ncc2c(C)c(-c3cccc(N4CCC4)c3)c(C)n2c1=O` [1-10, 7-[3-(azetidin-1-yl)phenyl]-3-ethyl-6,8-dimethyl-pyrrolo[1,2-d][1,2,4]triazin-4-one], the negative logarithm of the IC50 (pIC50) is 6.00 to 7.00. `Cc1c(-c2cccc(N3CCC3)c2)c(C)n2c(=O)n(-c3ccc(CCO)cn3)ncc12` [1-11]: the negative logarithm of the IC50 (pIC50) was 5.00 to 6.00. On to `Cc1c(-c2cccc(N3CCC3)c2)c(C)n2c(=O)n(C)ncc12` [1-12], for which the pIC50 was 6.00 to 7.00. The value for `Cc1c(-c2c(C)c3cnn(-c4ccccn4)c(=O)n3c2C)cccc1N1CCC1` [1-13] was above 7.00; that for `Cc1c(C2=CCCCC2)c(C)n2c(=O)n(-c3ccccn3)ncc12` [1-14] was 5.00 to 6.00; that for `Cc1c(-c2cccc(N3CCC3)c2)c(C)n2c(=O)n(-c3ncc(F)cn3)ncc12` [1-15] was above 7.00. Turning to `Cc1ccc(N2CCC2)cc1-c1c(C)c2cnn(-c3ccccn3)c(=O)n2c1C` [1-16], the pIC50 is 6.00 to 7.00.

For `Cc1c(-c2cccc(OC(F)F)c2)c(C)n2c(=O)n(-c3ncc(F)cn3)ncc12` [1-17], the pIC50 was above 7.00.

On to `Cc1c(OC2CC2)cccc1-c1cc2cnn(-c3ncccn3)c(=O)n2c1` [1-18, 7-[3-(cyclopropoxy)-2-methyl-phenyl]-3-pyrimidin-2-yl-pyrrolo[1,2-d][1,2,4]triazin-4-one], for which the pIC50 was 6.00 to 7.00. The value for `CCOC(=O)c1cnc(-n2ncc3c(C)c(-c4cccc(OC5CC5)c4)c(C)n3c2=O)nc1` [1-19] was 5.00 to 6.00; that for `Cc1c(-c2cccc(OC3CC3)c2)c(C)n2c(=O)n(-c3ccccn3)ncc12` [1-20] was above 7.00. Regarding `Cc1c(-c2cccc(OC3CC3)c2)c(C)n2c(=O)n(-c3ncc(F)cn3)ncc12` [1-21], the pIC50 is above 7.00. Consider `Cc1c(-c2cccc(N3CCC3)c2)c(C)n2c(=O)n(-c3ccc(F)cn3)ncc12` [1-22], for which the pIC50 is above 7.00. The value for `Cc1c(-c2cccc(N3CCC3)c2)c(C)n2c(=O)n(-c3ncccn3)ncc12` [1-23] was above 7.00; that for `Cc1c(-c2cccc(N3CCC3)c2)c(C)n2c(=O)n(-c3ccc(C(C)(C)O)cn3)ncc12` [1-24, 7-[3-(azetidin-1-yl)phenyl]-3-[5-(1-hydroxy-1-methyl-ethyl)-2-pyridyl]-6,8-dimethyl-pyrrolo[1,2-d][1,2,4]triazin-4-one] was above 7.00.

In the case of `COc1cnc(-n2ncc3c(C)c(-c4cccc(N5CCC5)c4)c(C)n3c2=O)nc1` [1-25], the negative-log IC50 (pIC50) is above 7.00. The value for `Cc1c(-c2cccc(N3CCC3)c2)c(C)n2c(=O)n(-c3ccc(Br)cn3)ncc12` [1-26] was 5.00 to 6.00. The value for `Cc1c(OC2CC2)cccc1-c1c(C)c2cnn(-c3ncccn3)c(=O)n2c1C` [1-27] was above 7.00; that for `Cc1c(-c2cccc(N3CCC3)c2)c(C)n2c(=O)n(-c3ccc(N(C(=O)OC(C)(C)C)C(=O)OC(C)(C)C)cn3)ncc12` [1-28] was 5.00 to 6.00. With `Cc1c(-c2cccc(OC3CC3)c2)c(C)n2c(=O)n(-c3ncccn3)ncc12` [1-29] the figure was above 7.00.

With `Cc1c(-c2cc(F)cc(N3CCC3)c2)c(C)n2c(=O)n(-c3ccccn3)ncc12` [1-30], the pIC50 was above 7.00. The value for `Cc1c(-c2cccc(N3CCC3)c2)c(C)n2c(=O)n(-c3ccc(NC(=O)OC(C)(C)C)cn3)ncc12` [1-31] was 6.00 to 7.00; that for `Cc1c(-c2cccc(N3CCC3)c2)c(C)n2c(=O)n(-c3ccc(N4CCOCC4)nc3)ncc12` [1-32] was 6.00 to 7.00. Turning to `Cc1c(-c2cccc(N3CCC3)c2)c(C)n2c(=O)n(C3CC3)ncc12` [1-33], the pIC50 is 6.00 to 7.00. Take `COCCNc1ccc(-n2ncc3c(C)c(-c4cccc(N5CCC5)c4)c(C)n3c2=O)nc1` [1-35]: the negative logarithm of the IC50 (pIC50) is 6.00 to 7.00. The value for `Cc1c(-c2cccc(N3CCC3)c2)c(C)n2c(=O)n(-c3ccc(NCCN(C)C)cn3)ncc12` [1-36] was 6.00 to 7.00. Turning to `Cc1c(-c2cccc(OC(F)F)c2)c(C)n2c(=O)n(-c3ccccn3)ncc12` [1-37], the negative-log IC50 (pIC50) was above 7.00. The value for `Cc1c(-c2cccc(OC(F)(F)F)c2)c(C)n2c(=O)n(-c3ccccn3)ncc12` [1-38] was 6.00 to 7.00. The value for `Cc1c(-c2cccc(N3CCC3)c2)c(C)n2c(=O)n(-c3ncc(OC(F)F)cn3)ncc12` [1-42] was above 7.00; that for `Cc1c(-c2cccc(N3CCC3)c2)c(C)n2c(=O)n(-c3ncc(OCCN(C)C)cn3)ncc12` [1-43] was 6.00 to 7.00.

For `Cc1c(-c2cccc(N3CCC3)c2)c(C)n2c(=O)n(-c3ncc(N)cn3)ncc12` [1-44], the pIC50 is above 7.00. The value for `COc1cnc(-n2ncc3c(C)c(-c4ccc(C)cc4C)c(C)n3c2=O)nc1` [1-46] was 6.00 to 7.00. Take `Cc1c(-c2cccc(OC3CC3)c2)c(C)n2c(=O)n(-c3ncc(N4CCOCC4)cn3)ncc12` [1-47, 7-[3-(cyclopropoxy)phenyl]-6,8-dimethyl-3-(5-morpholinopyrimidin-2-yl)pyrrolo[1,2-d][1,2,4]triazin-4-one]: the pIC50 was 6.00 to 7.00. With `Cc1c(-c2cccc(OC3CC3)c2)c(C)n2c(=O)n(-c3ncc(Cl)cn3)ncc12` [1-48] the figure was 6.00 to 7.00.

`Cc1c(OC2CC2)cccc1-c1c(C)c2cnn(-c3ncc(F)cn3)c(=O)n2c1C` [1-49]: the pIC50 was 6.00 to 7.00. Take `Cc1cnc(-n2ncc3c(C)c(-c4cccc(OC5CC5)c4)c(C)n3c2=O)nc1` [1-50]: the pIC50 is 6.00 to 7.00. In the case of `Cc1c(-c2cccc(OC3CC3)c2)c(C)n2c(=O)n(-c3ncccc3F)ncc12` [1-51], the pIC50 is 6.00 to 7.00.

For the molecule `Cc1cnc(-n2ncc3c(C)c(-c4cccc(OC5CC5)c4C)c(C)n3c2=O)nc1` [1-52], the pIC50 was 6.00 to 7.00. The value for `Cc1c(-c2cccc(OC(F)(F)F)c2)c(C)n2c(=O)n(-c3ncccn3)ncc12` [1-53, 6,8-dimethyl-3-pyrimidin-2-yl-7-[3-(trifluoromethoxy)phenyl]pyrrolo[1,2-d][1,2,4]triazin-4-one] was 6.00 to 7.00.

Consider `Cc1c(OC2CC2)cccc1-c1c(C)c2cnn(-c3ccc(F)cn3)c(=O)n2c1C` [1-54], for which the negative-log IC50 (pIC50) is 6.00 to 7.00. On to `COc1cnc(-n2ncc3c(C)c(-c4cccc(OC(F)(F)F)c4)c(C)n3c2=O)nc1` [1-56], for which the pIC50 was 6.00 to 7.00. For `COc1cnc(-n2ncc3c(C)c(-c4cccc(OC(F)F)c4)c(C)n3c2=O)nc1` [1-57], the pIC50 is 6.00 to 7.00. Take `Cc1c(-c2cccc(OC(F)F)c2)c(C)n2c(=O)n(-c3ncccn3)ncc12` [1-58]: the negative-log IC50 (pIC50) was above 7.00. The value for `Cc1c(OC2CC2)cccc1-c1c(C)c2cnn(-c3ccc(C(C)(C)O)cn3)c(=O)n2c1C` [1-59] was above 7.00. With `Cc1c(-c2cccc(OC(F)(F)F)c2)c(C)n2c(=O)n(-c3ncc(F)cn3)ncc12` [1-60] the figure was 6.00 to 7.00. The value for `COc1cccc(-c2cc3cnn(-c4ncccn4)c(=O)n3c2C)c1` [1-61] was 6.00 to 7.00; that for `Cc1c(-c2cccc3c2OCCN3C)cc2cnn(-c3ccccn3)c(=O)n12` [1-62] was above 7.00.
